Laboratory results published in patent US9434705B2, “L-setastine hydrochloride and preparation method thereof” (ANHUI QINGYUN PHARMACEUTICAL & CHEMICAL CO., LTD., priority 2011, dated 2016).

Assays:
[1] = inventors' finding on antihistaminic effect and sedation of D-setastine hydrochloride; details: result in words
guinea pigs [2] = experiment: histamine-induced death of guinea pigs after oral dosing of test sample; assay type: in vivo, guinea pig; details: for Number of death: gavage for two days, then histamine 20 mg/kg, deaths within 24 hours, + = died next day; for Death Percentage: histamine 20 mg/kg; for protective effect on histamine-induced death for guinea pigs: 0.16-0.68 mg/kg, result in words
Description: 1. Sample name: KL-001 (R-setastine hydrochloride prepared in embodiment 6), KL-002 (L-setastine hydrochloride prepared from embodiment 2, 3, 4, 5, or 6), and KL-003 (setastine hydrochloride racemic) provided by Anhui Kelong medicine research institute).
2. The specifications of content: There are three groups of each sample, which is high, medium, and small-dose group, wherein dosages for high, medium, small-dose group are 0.68 mg/kg, 0.32 mg/kg, and 0.16 mg/kg respectively. The dosages are considerable 20, 10, and 5 times comparing with the clinical dosages.
3. The preparation method for test sample: For the KL-001 sample, 84 ml of distilled water is added to KL-001 sample so as to obtain a large-dose group of KL-001, which is according to the gavage feeding volume of guinea pigs, which is 0.1 ml/100 g, which is the same as 0.68 mg/kg; and medium and small-does group of KL-001 are diluted by the high-dose group of KL-001 for double and quadruple times. For the KL-002 sample, 125 ml of distilled water is added to KL-002 sample to obtain a large-dose group of KL-002, which is according to the gavage feeding volume of guinea pigs, which is 0.1 ml/100 g, which is the same as 0.68 mg/kg; and medium and small-does group are diluted by the high-dose group for double and quadruple times. For KL-003 sample, 75 ml of distilled water is added to KL-003 sample so as to obtain a large-dose group of KL-003, which is according to the gavage feeding volume of guinea pigs, which is 0.1 ml/100 g, which is the same as 0.68 mg/kg; and medium and small-does group of KL-003 are diluted by the high-dose group of Kl-003 for double and quadruple times.
112 guinea pigs are fed in the feeding environment (to adapt in the environment) for three days, and are randomly divided into 10 groups, namely a control group, a high-dose group of KL-001, a medium-dose group of KL-001, a small-dose group of KL-001, a high-dose group of KL-002, a medium-dose group of KL-002, a small-dose group of KL-002, a high-dose group of KL-003, a medium-dose group of KL-003, and a small-dose group of KL-003. The dosage for high-dose group of Kl-001, KL-002, and Kl-003 is 0.68 mg/kg, and the dosage for medium-dose group of Kl-001, KL-002, and Kl-003 is 0.32 mg/kg, and the dosage for small-dose group of Kl-001, KL-002, and Kl-003 is 0.16 mg/kg, which are 20, 10, 5 times respectively comparing with the clinical dose. Each guinea pig from each group is fed by corresponding amounts of test sample for two days, which is according to the amount of 0.1 ml/100 g. Finally, each guinea pig is fed with lethal dose of histamine, which is 20 mg/kg after the last injection of test sample, and then observing the number of deaths of guinea pigs within 24 hours.

guinea pigs [3] = details: background statement; cited from earlier work
patients = details: racemic drug, China market; cited from earlier work

| Structure (SMILES) | antihistaminic effect [1] | side effects of sedation [1] | Number of death (guinea pigs [2]; 0.16 mg/kg (small dose)) | Death Percentage (guinea pigs [2]; 0.16 mg/kg (small dose)) | Number of death (guinea pigs [2]; 0.32 mg/kg (medium dose)) | Death Percentage (guinea pigs [2]; 0.32 mg/kg (medium dose)) | Number of death (guinea pigs [2]; 0.68 mg/kg (high dose)) | Death Percentage (guinea pigs [2]; 0.68 mg/kg (high dose)) | protective effect on histamine-induced death for guinea pigs (guinea pigs [2]) | protective effect on histamine-induced death for guinea pigs (guinea pigs [2]; listed as D-setastine hydrochloride) | protective effect on histamine-induced death for guinea pigs (guinea pigs [2]; listed as Kl-001) | histamine-induced bronchial spasms (guinea pigs [3]) | protective effect on histamine-induced death for guinea pigs (guinea pigs [2]; listed as setastine hydrochloride racemic) | sedative side effects in clinical use (patients) | protective effect on histamine-induced death for guinea pigs (guinea pigs [2]; listed as L-setastine hydrochloride) | protective effect compared with setastine hydrochloride racemic (guinea pigs [2]; comparison in words) |
| --- | --- | --- | --- | --- | --- | --- | --- | --- | --- | --- | --- | --- | --- | --- | --- | --- |
| CC(OCCN1CCCCCC1)(c1ccccc1)c1ccc(Cl)cc1.Cl (stereo not drawn) | no antihistaminic effect | can produce side effects of sedation | 11 | 100% | 11 | 100% | 11 | 100% | doesn't has the protective effect | no protective effect | doesn't has protective effect |  |  |  |  |  |
| CC(OCCN1CCCCCC1)(c1ccccc1)c1ccc(Cl)cc1 (racemic) [KL-003] |  |  | 6 + 2 | 66% | 3 + 1 | 36% | 1 + 1 | 16% | significant protective effect |  |  | inhibit | have protective effects | stronger sedative side effects |  |  |
| C[C@@](OCCN1CCCCCC1)(c1ccccc1)c1ccc(Cl)cc1 [KL-002] |  |  | 4 + 1 | 45% | 2 | 18% | 0 | 0% | significant protective effect |  |  |  |  |  | have protective effects | stronger |
